According to the supplement of paper PMC9663587:

What was measured:
[1] = compound: CCN1CCN(Cc2ccc(Nc3ncc(F)c(-c4cc(F)c5nc(C)n(C(C)C)c5c4)n3)nc2)CC1; assay: increase in dead-cell fraction, 72 h; higher = more death;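 further: breast cancer cell lines in 384-well plates, stained with Hoechst plus LIVE/DEAD far red dye and imaged, cells above an LDR intensity threshold counted dead, Hoechst-negative corpses included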
[2] = compound: T1, CN1CC[C@H](c2c(O)cc(O)c3c(=O)cc(-c4ccccc4Cl)oc23)[C@H](O)C1 [Flavopiridol]; assay: as above
[3] = compound: CCN1CCN(Cc2ccc(Nc3ncc(F)c(-c4cc(F)c5nc(C)n(C(C)C)c5c4)n3)nc2)CC1; assay: GR value, 72 h; higher = faster growth (1 = untreated, <0 = killing);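 further: breast cancer and non-malignant breast epithelial lines, nine half-log doses, viable cells counted by Hoechst and LIVE/DEAD dye imaging versus time-zero plates and DMSO controls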
[4] = compound: CN(C)C(=O)c1cc2cnc(Nc3ccc(N4CCNCC4)cn3)nc2n1C1CCCC1 [LEE011/Ribociclib]; assay: as above
[5] = compound: T1, Flavopiridol; assay: as above
[6] = compound: CCc1cnn2c(NCc3ccc[n+]([O-])c3)cc(N3CCCC[C@H]3CCO)nc12; assay: as above
[7] = compound: CN(C)C/C=C/C(=O)Nc1ccc(C(=O)N2CCC[C@@H](Nc3ncc(Cl)c(-c4c[nH]c5ccccc45)n3)C2)cc1 [THZ531]; assay: as above
[8] = compound: CC(=O)c1c(C)c2cnc(Nc3ccc(N4CCN(CCOCCOCCOCCNC(=O)COc5cccc6c5C(=O)N(C5CCC(=O)NC5=O)C6=O)CC4)cn3)nc2n(C2CCCC2)c1=O [BSJ-03-123]; assay: as above
[9] = compound: CN(C)C/C=C/C(=O)Nc1ccc(C(=O)Nc2cccc(Nc3ncc(Cl)c(-c4c[nH]c5ccccc45)n3)c2)cc1 [THZ1]; assay: as above
[10] = compound: CC(=O)c1c(C)c2cnc(Nc3ccc(N4CCNCC4)cn3)nc2n(C2CCCC2)c1=O; assay: as above
[11] = compound: C=CC(=O)Nc1ccc(C(=O)Nc2[nH]nc3c2CN(C(=O)N[C@H](CN(C)C)c2ccccc2)C3(C)C)cc1 [YKL-5-124]; assay: as above
[12] = compound: CCOc1cc2ncc(C#N)c(Nc3ccc(OCc4ccccn4)c(Cl)c3)c2cc1NC(=O)/C=C/CN(C)C [Neratinib/HKI272]; assay: as above

## HCC1395
[1]; 0.001 µM
  increase in dead-cell fraction: 0.0055
[1]; 0.003162 µM
  increase in dead-cell fraction: -0.0031
[1]; 0.01 µM
  increase in dead-cell fraction: 0.0123
[1]; 0.03162 µM
  increase in dead-cell fraction: 0.0119
[1]; 0.1 µM
  increase in dead-cell fraction: 0.0163
[1]; 0.3162 µM
  increase in dead-cell fraction: 0.0184
[1]; 1 µM
  increase in dead-cell fraction: 0.0343
[1]; 3.162 µM
  increase in dead-cell fraction: 0.0632
[1]; 10 µM
  increase in dead-cell fraction: 0.447
[2]; 0.0001 µM
  increase in dead-cell fraction: -0.0165
[2]; 0.0003162 µM
  increase in dead-cell fraction: 0.0036
[2]; 0.001 µM
  increase in dead-cell fraction: -0.001
[2]; 0.003162 µM
  increase in dead-cell fraction: 0.0024
[2]; 0.01 µM
  increase in dead-cell fraction: 0.0179
[2]; 0.03162 µM
  increase in dead-cell fraction: -0.0053
[2]; 0.1 µM
  increase in dead-cell fraction: -0.0066
[2]; 0.3162 µM
  increase in dead-cell fraction: 0.0777
[2]; 1 µM
  increase in dead-cell fraction: 0.306
[3]; 0.001 µM
  GR value: 0.922 GR
[3]; 0.003162 µM
  GR value: 0.928 GR
[3]; 0.01 µM
  GR value: 0.734 GR
[3]; 0.03162 µM
  GR value: 0.594 GR
[3]; 0.1 µM
  GR value: 0.387 GR
[3]; 0.3162 µM
  GR value: 0.361 GR
[3]; 1 µM
  GR value: 0.283 GR
[3]; 3.162 µM
  GR value: 0.0357 GR
[3]; 10 µM
  GR value: -0.543 GR
[4]; 0.001 µM
  GR value: 0.88 GR
[4]; 0.003162 µM
  GR value: 0.843 GR
[4]; 0.01 µM
  GR value: 0.691 GR
[4]; 0.03162 µM
  GR value: 0.847 GR
[4]; 0.1 µM
  GR value: 0.657 GR
[4]; 0.3162 µM
  GR value: 0.674 GR
[4]; 1 µM
  GR value: 0.569 GR
[4]; 3.162 µM
  GR value: 0.553 GR
[4]; 10 µM
  GR value: 0.415 GR
[5]; 0.0001 µM
  GR value: 1.02 GR
[5]; 0.0003162 µM
  GR value: 0.885 GR
[5]; 0.001 µM
  GR value: 0.933 GR
[5]; 0.003162 µM
  GR value: 0.826 GR
[5]; 0.01 µM
  GR value: 0.75 GR
[5]; 0.03162 µM
  GR value: 0.973 GR
[5]; 0.1 µM
  GR value: 0.683 GR
[5]; 0.3162 µM
  GR value: -0.0127 GR
[5]; 1 µM
  GR value: -0.672 GR
[6]; 0.0001 µM
  GR value: 1.09 GR
[6]; 0.0003162 µM
  GR value: 1.1 GR
[6]; 0.001 µM
  GR value: 1.05 GR
[6]; 0.003162 µM
  GR value: 1.04 GR
[6]; 0.01 µM
  GR value: 0.649 GR
[6]; 0.03162 µM
  GR value: -0.319 GR
[6]; 0.1 µM
  GR value: -0.482 GR
[6]; 0.3162 µM
  GR value: -0.507 GR
[6]; 1 µM
  GR value: -0.488 GR
[7]; 0.0001 µM
  GR value: 1.14 GR
[7]; 0.0003162 µM
  GR value: 0.962 GR
[7]; 0.001 µM
  GR value: 0.995 GR
[7]; 0.003162 µM
  GR value: 0.947 GR
[7]; 0.01 µM
  GR value: 0.976 GR
[7]; 0.03162 µM
  GR value: 0.76 GR
[7]; 0.1 µM
  GR value: 0.408 GR
[7]; 0.3162 µM
  GR value: -0.251 GR
[7]; 1 µM
  GR value: -0.587 GR
[8]; 0.001 µM
  GR value: 0.847 GR
[8]; 0.003162 µM
  GR value: 0.925 GR
[8]; 0.01 µM
  GR value: 0.769 GR
[8]; 0.03162 µM
  GR value: 0.767 GR
[8]; 0.1 µM
  GR value: 0.774 GR
[8]; 0.3162 µM
  GR value: 0.692 GR
[8]; 1 µM
  GR value: 0.572 GR
[8]; 3.162 µM
  GR value: 0.534 GR
[8]; 10 µM
  GR value: -0.188 GR
[9]; 0.0001 µM
  GR value: 1 GR
[9]; 0.0003162 µM
  GR value: 1.01 GR
[9]; 0.001 µM
  GR value: 0.982 GR
[9]; 0.003162 µM
  GR value: 0.985 GR
[9]; 0.01 µM
  GR value: 1.04 GR
[9]; 0.03162 µM
  GR value: 0.241 GR
[9]; 0.1 µM
  GR value: -0.42 GR
[9]; 0.3162 µM
  GR value: -0.546 GR
[9]; 1 µM
  GR value: -0.795 GR
[10]; 0.0003162 µM
  GR value: 1.12 GR
[10]; 0.001 µM
  GR value: 1.07 GR
[10]; 0.003162 µM
  GR value: 1.06 GR
[10]; 0.01 µM
  GR value: 0.944 GR
[10]; 0.03162 µM
  GR value: 0.702 GR
[10]; 0.1 µM
  GR value: 0.495 GR
[10]; 0.3162 µM
  GR value: 0.444 GR
[10]; 1 µM
  GR value: 0.386 GR
[10]; 3.162 µM
  GR value: 0.324 GR
[11]; 0.001 µM
  GR value: 0.63 GR
[11]; 0.003162 µM
  GR value: 0.375 GR
[11]; 0.01 µM
  GR value: 0.275 GR
[11]; 0.03162 µM
  GR value: 0.158 GR
[11]; 0.1 µM
  GR value: 0.0856 GR
[11]; 0.3162 µM
  GR value: 0.0979 GR
[11]; 1 µM
  GR value: 0.0594 GR
[11]; 3.162 µM
  GR value: -0.0428 GR
[11]; 10 µM
  GR value: -0.311 GR
[12]; 0.0003162 µM
  GR value: 1.05 GR
[12]; 0.001 µM
  GR value: 1.07 GR
[12]; 0.003162 µM
  GR value: 1.14 GR
[12]; 0.01 µM
  GR value: 1 GR
[12]; 0.03162 µM
  GR value: 1.06 GR
[12]; 0.1 µM
  GR value: 0.916 GR
[12]; 0.3162 µM
  GR value: 0.741 GR
[12]; 1 µM
  GR value: 0.521 GR
[12]; 3.162 µM
  GR value: 0.0073 GR
